Measured values published in patent US10774064B2 (Cadent Therapeutics, Inc., priority 2016, dated 2020).
Where two headings read alike, the source gives them in different places.

Key:
[1] = tested on: harmaline induced tremor; assay: harmaline induced tremor in rats; assay type: in vivo, Male Sprague Dawley rats
Protocol: Immediately following harmaline injection, animals were placed in the tremor quantification apparatus and tremor events were quantified for 60 minutes. A tremor event signal was generated when a small metal transmitter band fitted to the right forepaw of the animal moved within the electromagnetic field generated by a loop antenna within the testing apparatus. Outputs from the amplifier were digitized at a sampling rate of 1,000 Hz and the signal was processed and analyzed using LabView software (National Instruments). To minimize signal from ambulatory and grooming behavior, the signal was filtered with a 128-ms nonweigthed moving average filter, and events with amplitudes >0.5 V and lasting >300 ms in duration were counted as a tremor event. Data were analyzed in one-minute bins over the course of the test and presented as the sum of tremor events over the entire 60 minute test.

[2] = brain concentration by mass spectrometry from brains harvested after tremor recording; free brain concentration and % SK2 SC100; assay type: in vivo, Male Sprague Dawley rats; conditions: male, Sprague Dawley, rat, oral, 30 mg/Kg
Text: The amount of free compound is then expressed in terms of its potency against the SK2 channel as follows: % SK2 SC100=CFB/SK2 SC100×100, where SK2 SC100 (Table 3, “SK2 SC100”) is the measured value of potency of the compound against SK2 channels and % SK2 SC100 (Table 3, “% SK2 SC100”) is the free brain concentration (CFB) normalized to SK2 SC100. Thus the % SK2 SC100 gives a measure of the degree to which each of the compounds is modulating SK2 channels regardless of differences in potency or exposure. Values are given in […]

[3] = molecular target: T1, small-conductance Ca2+-activated K+ channels (SK channels, subtype 2) (Homo sapiens, UniProt Q9H2S1); assay: whole-cell patch-clamp of ionic current through SK2 channels in HEK293 cells (SC100); assay type: cell-based; conditions: for SC100 / SC100 (μM): concentration that increases the basal current by 100%, HEK293 cells expressing SK2 channels; for SC100 (μM): whole-cell patch-clamp
T1 construct: expressed in transfected cells; host or cells: HEK293
In short: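 Whole-cell patch-clamp recording of current in HEK293 cells expressing SK2 channels. SC100 is the compound concentration that increases basal current by 100%.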

Row | SMILES | SC100 [3] | SC100 (μM) [3] | further results
1 | Cc1ccn(-c2nc(NC3CCC(F)(F)CC3)cc(N3CCOCC3)n2)n1 [Compound 359, N-(4,4-difluorocyclohexyl)-2-(3-methyl-1H-pyrazol-1-yl)-6-morpholinopyrimidin-4-amine] | – | – | inhibition of tremors (sum of tremor events over 60 minutes) ([1]; 30 mg/Kg oral, 30 minutes prior to harmaline injection, FIG. 1): significant inhibition of tremors; Minimally Efficacious Dose ([1]; oral administration 30 minutes prior to harmaline injection, rats): 30 mg/kg; concentration at 90 min ([2]; CFB=CMB×BFF, read-out: Calculated Free Brain Concentration): 80 nM; concentration at 90 min ([2]; brains harvested immediately following tremor recording, mass spectrometry, at minimally efficacious dose, read-out: Measured Brain Concentration): 1300 nM; Measured SK2 SC100 ([3]; potency against SK2 channels): 0.5 µM
2 | Cc1cc(C)n(-c2nc3c(c(NC4CCC(F)(F)CC4)n2)CCN(CC(N)=O)C3)n1 [Compound 121, 2-(4-((4,4-difluorocyclohexyl)amino)-2-(3,5-dimethyl-1H-pyrazol-1-yl)-5,8-dihydropyrido[3,4-d]pyrimidin-7(6H)-yl)acetamide] | + (+ means >1 uM) | – | –
3 | CC(C)(C)C(=O)N1CC(Oc2cc(NC3CCC(F)(F)CC3)nc(-c3nc(C(F)F)cs3)n2)C1 [Compound 329, 1-(3-((6-((4,4-difluorocyclohexyl)amino)-2-(4-(difluoromethyl)thiazol-2-yl)pyrimidin-4-yl)oxy)azetidin-1-yl)-2,2-dimethylpropan-1-one] | ++ (++ means 200 nM-1000 nM) | – | –
4 | Cc1cc(C)n(-c2nc(NC3CCCC(F)(F)C3)cc(C(N)=O)n2)n1 (centres unmarked) [Compound 350, 6-((3,3-difluorocyclohexyl)amino)-2-(3,5-dimethyl-1H-pyrazol-1-yl)pyrimidine-4-carboxamide] | + (+ means >1 uM) | – | –
5 | COc1nc(-c2nc(C)cs2)nc(NC2CCC(F)(F)CC2)c1OC [IN11125-010-P1] | – | ++ (++ means 200 nM-1000 nM) | –

More lines, main results first:

Row | SC100 [3] | SC100 (μM) [3] | SMILES | further results
6 | – | + (+ means >1 uM) | Cc1csc(-c2nc(NC3CCC(F)(F)CC3)cc(OC3CC3)n2)n1 [IN11146-033-P1, 6-cyclopropoxy-N-(4,4-difluorocyclohexyl)-2-(4-methylthiazol-2-yl)pyrimidin-4-amine] | –
7 | – | + (+ means >1 uM) | Cc1csc(-c2nc(N3CCOCC3)cc(N3CC4CCCCC43)n2)n1 (centres unmarked) [NSSy6348, 4-(6-(7-azabicyclo[4.2.0]octan-7-yl)-2-(4-methylthiazol-2-yl)pyrimidin-4-yl)morpholine] | –
